According to patent publication US9115093B2, “Substituted bicyclic dihydropyrimidinones and their use as inhibitors of neutrophil elastase activity” (Boehringer Ingelheim International GmbH, priority 2013, dated 2015):
Converted amounts (≈) assume the structure as drawn.

How the values were obtained:
[1] = Metabolic stability with human liver microsomes; format: in vitro ADME; conditions: pooled human liver microsomes, 37° C., 1 mg/ml protein, NADPH; for half-life at 1 nM: pH 7.6, read-out: t1/2 INVITRO
Description: Assay for the Determination of Metabolic Stability with Human Liver Microsomes
The metabolic degradation of the test compound is assayed at 37° C. with pooled human liver microsomes. The final incubation volume of […] per time point contains TRIS buffer pH 7.6 (0.1 M), magnesium chloride (5 mM), microsomal protein (1 mg/ml) and the test compound at a final concentration of […]. Following a short preincubation period at 37° C., the reactions are initiated by addition of beta-nicotinamide adenine dinucleotide phosphate, reduced form (NADPH, 1 mM) and terminated by transfering an aliquot into acetonitrile after different time points. Additionally, the NADPH-independent degradation is monitored in incubations without NADPH, terminated at the last time point. The rol remaining test compound after NADPH independent incubation is reflected by the parameter c(control) (metabolic stability). The quenched incubations are pelleted by centrifugation (10′000 g, 5 min) An aliquot of the supernatant is assayed by LC-MS/MS for the amount of parent compound.
The half-life (t1/2 INVITRO) is determined by the slope of the semilogarithmic plot of the concentration-time profile. The intrinsic clearance (CL_[…]) is calculated by considering the amount of protein in the incubation: CL_[…][μl/min/mg protein]=(ln 2/(half-life [min]*protein content [mg/ml]))*1′000.
The half-life (t1/2 INVITRO) values of selected compounds in the metabolic stability assay described above are listed in Table 15.

[2] = Drug transport across human CACO-2 cells; format: in vitro ADME
Source text: Assay for Determination of Drug Transport Across Human CACO-2 Cells
The assay provides information on the potential of a compound to pass the cell membrane, on the extent of oral absorption as well as on whether the compound is actively transported by uptake and/or efflux transporters. For the measurement of permeability across polarized, confluent human cancer colon carcinoma cells 2 (Caco-2) cell monolayers grown on permeable filter supports are used as the in vitro absorption model. Apparent permeability coefficients (PE) of the compounds across the Caco-2 monolayers are measured (pH 7.2, 37° C.) in apical-to-basal (AB) (absorptive) and basal-to-apical (BA) (secretory) transport direction. AB permeability (PEAB) represents drug absorption from the intestine into the blood and BA permeability (PEBA) drug secretion from the blood back into the intestine via both passive permeability as well as active transport mechanisms mediated by efflux and uptake transporters that are expressed on the Caco-2 cells. The compounds are assigned to permeability/absorption classes by comparison of the AB permeabilities with the AB permeabilities of reference compounds with known in vitro permeability and oral absorption in the human. Identical or similar permeabilities in both transport directions indicate passive permeation, vectorial permeability points to additional active transport mechanisms. […] Active transport is concentration-dependently saturable.
Caco-2 cells (1−2*10^5 cells/cm^2 area) are seeded on filter inserts (Costar transwell polycarbonate or PET filters, […] pore size) and cultured (DMEM) for 10 to 25 days. Compounds are dissolved in appropriate solvent (like DMSO, 1-20 mM stock solutions). Stock solutions are diluted with HTP-4 buffer (128.13 mM NaCl, 5.36 mM KCl, 1 mM MgSO4, 1.8 mM CaCl2, 4.17 mM NaHCO3, 1.19 mM Na2HPO4×7H2O, 0.41 mM NaH2PO4×H2O, 15 mM HEPES, 20 mM glucose, pH 7.2) to prepare the transport solutions (typically […] compound, final DMSO <=0.5%). The transport solution (TL) is applied to the apical or basolateral donor side for measuring A-B or B-A permeability (3 filter replicates), respectively. The receiver side contains HTP-4 buffer supplemented with 2% BSA. Samples are collected at the start and end of experiment from the donor and at various time intervals for up to 2 hours also from the receiver side for concentration measurement by LC-MS/MS or scintillation counting. Sampled receiver volumes are is replaced with fresh receiver solution.
The apparent permeability coefficients (PEAB and PEBA) and efflux ratios (PEBA/PEAB) of selected compounds in the Caco-2 drug transport assay described above are listed in Table 17.

Aqueous solubility = format: physicochemical; conditions: McIlvaine buffer pH 6.8, 2.5% DMSO, 24 h shaking; for solubility at 24 h: McIlvaine buffer with 2.5% DMSO
Description: Assay for Determination of Aqueous Solubility
The aqueous solubility of a compound is determined by comparing the amount dissolved in aqueous buffer (containing 2.5% DMSO) to the amount dissolved in an acetonitrile/water (1/1) solution. Starting from a 10 mM DMSO stock solution, aliquots are diluted with acetonitrile/water (1/1) and Mcllvaine buffer pH 6.8, respectively. After 24 h of shaking, the solutions or suspensions are filtered and analyzed by LC-UV. The amount dissolved in buffer is compared to the amount dissolved in the acetonitrile/water (1/1) solution. Solubility is measured from 0.001 to 0.125 mg/ml at a DMSO concentration of 2.5%. If more than 90% of the compound is dissolved in buffer, the value is marked with “>”.

Work on `N#Cc1ccc(C2C3=C(CCCC3=O)N(c3cccc(C(F)(F)F)c3)C(=O)N2C(=O)NCCO)cc1` (centres unmarked) [Example 39.3] yielded a half-life at 1 nM [1] greater than 2.17 h, a Papp A→B at 10 nM ([2]; Caco-2 monolayers, apical-to-basal, pH 7.2, 37° C., read-out: PEAB) of 12.8 ×10⁻⁶ cm/s and a Papp B→A at 10 nM ([2]; Caco-2 monolayers, basal-to-apical, pH 7.2, 37° C., read-out: PEBA) of 76.5 ×10⁻⁶ cm/s. For the same compound, the efflux ratio at 10 nM ([2]; pH 7.2, Caco-2, PEBA/PEAB) was 6 and the solubility at 24 h (Aqueous solubility) was 6 µg/mL (≈ 12 µM).
Compound `CS(=O)(=O)CCNC(=O)N1C(=O)N(c2cccc(C(F)(F)F)c2)C2=C(C(=O)CCC2)C1c1ccc(C#N)cc1` (centres unmarked) [Example 39.19] has a half-life at 1 nM [1] greater than 2.17 h and a solubility at 24 h (Aqueous solubility) of 9 µg/mL (≈ 16.1 µM).
For `CC(C)NC(=O)N1C(=O)N(c2cccc(C(F)(F)F)c2)C2=C(C(=O)CCC2)[C@H]1c1ccc(C#N)cc1S(C)(=O)=O` [Example 75.3], the “t1/2 INVITRO” value [1] was greater than 2.17 h and the Aqueous solubility (Aqueous solubility) was 9 µg/mL.
In the case of `CS(=O)(=O)c1cc(C#N)ccc1[C@@H]1C2=C(CCCC2=O)N(c2cccc(C(F)(F)F)c2)C(=O)N1C(=O)NCC(F)F` [Example 75.7], the “t1/2 INVITRO” value [1] is reported as greater than 2.17 h and the Aqueous solubility (Aqueous solubility) is reported as 5 µg/mL.
